Measurements as given in patent CN101125142A, “青蒿素在制备抗肿瘤多药耐药药物中的应用” (DONGZHIMEN HOSPITAL AFFILIATED TO BEIJING UNIVERSITY OF …, priority 2007, dated 2008).
Several values for one entry are separate records, joined by “and”; a condition that tells them apart may be missing. Equal values may be shown once. Entries after “also recorded” stand apart in the source; their conditions may differ. Read-outs that look alike come from different tables or passages of the source.

Columns and labels:
[1] = tested on: tumour multidrug resistance (肿瘤多药耐药); conditions: background; cited from earlier work
KBV200 cells (KBV200细胞) [2] = experiment: MTT cytotoxicity test: growth inhibition of KBV200 cells by single agents; type: cell-based, human; conditions: for IC50: KBv200; for inhibitory effect on tumour cells compared with another agent: artesunate versus artemisinin, dihydroartemisinin versus artesunate
KBV200 cells (KBV200细胞) [3] = experiment: Reversal of resistance: MTT growth inhibition of KBV200 cells by agent combined with VCR; type: cell-based, human; conditions: for inhibition rate of KBV200 cells on combination with VCR: VCR concentration constant, three agent concentrations; for reversal of vincristine resistance / sensitisation of KBV200 to VCR: agent combined with VCR
KBV200 cells (KBV200细胞) [4] = conditions: KBV200 cell line; cited from earlier work
[5] = Homo sapiens, mass concentration in brackets beside the μmol/l value
[6] = Homo sapiens, single agent, 72 h (discussion)

人参皂甙Rb1
reversal fold [1]: 8.2-13.0

C[C@H]1[C@H](OC(=O)CCC(=O)O)O[C@@H]2O[C@@]3(C)CC[C@H]4[C@H](C)CC[C@@H]1[C@@]24OO3 [青蒿琥酯]
selective killing of KBV200 cells (KBV200 cells (KBV200细胞) [2]): 有选择性杀伤作用 | IC50 (KBV200 cells (KBV200细胞) [2]; [5]): 0.563 µg/mL | IC50 (KBV200 cells (KBV200细胞) [2]; [6]): 1.47 µM | inhibition rate (IR) (KBV200 cells (KBV200细胞) [2]; artesunate 0.0156 μmol/l (so in the source), 72 h): 9.520±4.910% | inhibition rate (IR) (KBV200 cells (KBV200细胞) [2]; artesunate 0.0390 μmol/l, 72 h): 1.640±3.520% | inhibition rate (KBV200 cells (KBV200细胞) [2]; artesunate 0.156 umol/l): < 20% | inhibition rate (IR) (KBV200 cells (KBV200细胞) [2]; artesunate 0.3130 μmol/l, 72 h): < 20% and 18.41±4.420% | inhibition rate (IR) (KBV200 cells (KBV200细胞) [2]; artesunate 0.6250 μmol/l, 72 h): 35.25±10.52% | inhibition rate (IR) (KBV200 cells (KBV200细胞) [2]; artesunate 1.2500 μmol/l, 72 h): 47.56±1.250% | inhibition rate (IR) (KBV200 cells (KBV200细胞) [2]; artesunate 2.5000 μmol/l, 72 h): 57.67±1.110% | inhibition rate (IR) (KBV200 cells (KBV200细胞) [2]; artesunate 5.0000 μmol/l, 72 h): 69.85±6.900% | inhibition rate (IR) (KBV200 cells (KBV200细胞) [2]; artesunate 10.000 μmol/l, 72 h): 84.47±0.600% | inhibition rate (IR) (KBV200 cells (KBV200细胞) [2]; artesunate 20.000 μmol/l, 72 h): 95.02±6.560% | inhibition rate (KBV200 cells (KBV200细胞) [2]; artesunate above 1.466 umol/l): > 50% | inhibitory effect on KBV200 cells (KBV200 cells (KBV200细胞) [2]; artesunate below 0.039 umol/l): 几乎无抑制效应 | inhibition rate (KBV200 cells (KBV200细胞) [2]; artesunate below 0.313 umol/l): < 20% | inhibitory effect on KBV200 cells (KBV200 cells (KBV200细胞) [2]; artesunate below 1.25 umol/l): 抑制效应并不明显 | inhibitory effect on tumour cells compared with another agent (KBV200 cells (KBV200细胞) [2]): 比青蒿素显著增强 | inhibitory effect on KBV200 cells (KBV200 cells (KBV200细胞) [2]; overall statement): 大浓度具有一定的抑制KBV200细胞增殖效应; also recorded: 均有一定抑制效应 | inhibition rate of KBV200 cells on combination with VCR (KBV200 cells (KBV200细胞) [3]): 略有提高 | reversal of vincristine resistance / sensitisation of KBV200 to VCR (KBV200 cells (KBV200细胞) [3]): 有一定的增敏作用 | reversal fold (RI) (KBV200 cells (KBV200细胞) [3]; artesunate 0.078 umol/l with VCR): 1.19 | reversal fold (RI) (KBV200 cells (KBV200细胞) [3]; artesunate 0.156 umol/l with VCR): 1.79 | reversal fold (RI) (KBV200 cells (KBV200细胞) [3]; artesunate 0.313 umol/l with VCR): 2.57

COc1cccc2c1C(=O)c1c(O)c3c(c(O)c1C2=O)C[C@@](O)(C(=O)CO)C[C@@H]3O[C@H]1C[C@H](N)[C@H](O)[C@H](C)O1 [阿霉素]
fold resistance (KBV200 cells (KBV200细胞) [4]): ~15 fold

C[C@@H]1CC[C@H]2[C@@H](C)C(=O)O[C@@H]3O[C@@]4(C)CC[C@@H]1[C@]32OO4 [青蒿素]
IC50 (KBV200 cells (KBV200细胞) [2]; [5]): 48.6 µg/mL | IC50 (KBV200 cells (KBV200细胞) [2]; [6]): 172 µM | inhibition rate (IR) (KBV200 cells (KBV200细胞) [2]; artemisinin 2.50 μmol/l, 72 h): 1.140±2.85% | inhibition rate (IR) (KBV200 cells (KBV200细胞) [2]; artemisinin 5.00 μmol/l, 72 h): 2.690±4.36% | inhibition rate (IR) (KBV200 cells (KBV200细胞) [2]; artemisinin 20.0 μmol/l, 72 h): < 20% and 12.70±2.53% | inhibition rate (IR) (KBV200 cells (KBV200细胞) [2]; artemisinin 40.0 μmol/l, 72 h): < 20% and 19.22±5.59% | inhibition rate (IR) (KBV200 cells (KBV200细胞) [2]; artemisinin 80.0 μmol/l, 72 h): 28.47±2.73% | inhibition rate (IR) (KBV200 cells (KBV200细胞) [2]; artemisinin 160 μmol/l, 72 h): 43.57±5.20% | inhibition rate (KBV200 cells (KBV200细胞) [2]; artemisinin above 172.4 umol/l): > 50% | inhibitory effect on KBV200 cells (KBV200 cells (KBV200细胞) [2]; artemisinin below 2.50 umol/l): 几乎无抑制效应 | inhibition rate (KBV200 cells (KBV200细胞) [2]; artemisinin below 40 umol/l): < 20% | inhibition rate (KBV200 cells (KBV200细胞) [2]; artemisinin below 80 umol/l): < 30% | inhibitory effect on KBV200 cells (KBV200 cells (KBV200细胞) [2]; artemisinin below 160 umol/l): 抑制效应并不明显 | inhibitory effect on KBV200 cells (KBV200 cells (KBV200细胞) [2]; overall statement): 大浓度具有一定的抑制KBV200细胞增殖效应; also recorded: 均有一定抑制效应 | inhibition rate of KBV200 cells on combination with VCR (KBV200 cells (KBV200细胞) [3]): 明显提高 | reversal of vincristine resistance / sensitisation of KBV200 to VCR (KBV200 cells (KBV200细胞) [3]): 可部分逆转; also recorded: 具有不同的逆转KBV200耐药效应 | reversal fold (RI) (KBV200 cells (KBV200细胞) [3]; artemisinin 10 umol/l with VCR, RI = IC50 VCR / IC50 VCR+agent): 2.29 | reversal fold (RI) (KBV200 cells (KBV200细胞) [3]; artemisinin 20 umol/l with VCR): 2.68 | reversal fold (RI) (KBV200 cells (KBV200细胞) [3]; artemisinin 40 umol/l with VCR): 3.0

COc1cc2c(cc1OC)[C@@H](Cc1ccc(Oc3cc(C[C@@H]4c5cc(OC)c(OC)cc5CCN4C)ccc3O)cc1)N(C)CC2 [蝙蝠葛碱]
reversal fold [1]: 8.2-13.0

O=c1[nH]cc(F)c(=O)[nH]1 [5-氟脲嘧啶]
resistance (KBV200 cells (KBV200细胞) [4]): 耐药性较低

CC1CCC2C(C)C(O)OC3OC4(C)CCC1C32OO4 (stereo not drawn) [二氢青蒿素]
IC50 (KBV200 cells (KBV200细胞) [2]; [5]): 3.18 µg/mL | IC50 (KBV200 cells (KBV200细胞) [2]; [6]): 11.2 µM | inhibitory effect on tumour cells compared with another agent (KBV200 cells (KBV200细胞) [2]): 较青蒿琥酯次之 | inhibition rate (IR) (KBV200 cells (KBV200细胞) [2]; dihydroartemisinin 0.156 μmol/l, 72 h): 0.680±0.84% | inhibition rate (IR) (KBV200 cells (KBV200细胞) [2]; dihydroartemisinin 0.313 μmol/l, 72 h): 0.940±3.87% | inhibition rate (IR) (KBV200 cells (KBV200细胞) [2]; dihydroartemisinin 1.250 μmol/l, 72 h): < 20% and 10.00±3.31% | inhibition rate (IR) (KBV200 cells (KBV200细胞) [2]; dihydroartemisinin 2.500 μmol/l, 72 h): < 20% and 18.50±4.88% | inhibition rate (IR) (KBV200 cells (KBV200细胞) [2]; dihydroartemisinin 5.000 μmol/l, 72 h): 32.30±10.1% | inhibition rate (IR) (KBV200 cells (KBV200细胞) [2]; dihydroartemisinin 10.00 μmol/l, 72 h): 48.69±6.53% | inhibition rate (IR) (KBV200 cells (KBV200细胞) [2]; dihydroartemisinin 20.00 μmol/l, 72 h): 71.98±7.16% | inhibition rate (IR) (KBV200 cells (KBV200细胞) [2]; dihydroartemisinin 40.00 μmol/l, 72 h): 89.99±4.39% | inhibition rate (KBV200 cells (KBV200细胞) [2]; dihydroartemisinin above 11.16 umol/l): > 50% | inhibitory effect on KBV200 cells (KBV200 cells (KBV200细胞) [2]; dihydroartemisinin below 0.313 umol/l): 几乎无抑制效应 | inhibition rate (KBV200 cells (KBV200细胞) [2]; dihydroartemisinin below 2.5 umol/l): < 20% | inhibitory effect on KBV200 cells (KBV200 cells (KBV200细胞) [2]; dihydroartemisinin below 10 umol/l): 抑制效应并不明显 | inhibitory effect on KBV200 cells (KBV200 cells (KBV200细胞) [2]; overall statement): 大浓度具有一定的抑制KBV200细胞增殖效应; also recorded: 均有一定抑制效应 | inhibition rate of KBV200 cells on combination with VCR (KBV200 cells (KBV200细胞) [3]): 略有提高 | reversal of vincristine resistance / sensitisation of KBV200 to VCR (KBV200 cells (KBV200细胞) [3]): 有一定的增敏作用 | reversal fold (RI) (KBV200 cells (KBV200细胞) [3]; dihydroartemisinin 0.625 umol/l with VCR): 1.35 | reversal fold (RI) (KBV200 cells (KBV200细胞) [3]; dihydroartemisinin 1.25 umol/l with VCR): 1.515 | reversal fold (RI) (KBV200 cells (KBV200细胞) [3]; dihydroartemisinin 2.5 umol/l with VCR): 1.74

COc1cc([C@@H]2c3cc4c(cc3[C@@H](O[C@@H]3O[C@@H]5CO[C@@H](C)O[C@H]5[C@H](O)[C@H]3O)[C@H]3COC(=O)[C@H]23)OCO4)cc(OC)c1O [鬼臼乙叉甙]
resistance (KBV200 cells (KBV200细胞) [4]): 耐药性较低

COC(=O)C[C@](O)(CCCC(C)(C)O)C(=O)O[C@@H]1C(OC)=C[C@]23CCCN2CCc2cc4c(cc2[C@H]13)OCO4 [高三尖杉酯]
resistance (KBV200 cells (KBV200细胞) [4]): 耐药性较低

COc1ccc2cc1Oc1ccc(cc1)C[C@H]1c3cc(c(OC)cc3CCN1C)Oc1c(OC)c(OC)cc3c1[C@H](C2)N(C)CC3 [粉防已碱]
reversal fold [1]: 8.2-13.0

CC(=O)O[C@H]1C(=O)[C@@]2(C)[C@H]([C@H](OC(=O)c3ccccc3)[C@]3(O)C[C@H](OC(=O)[C@H](O)[C@@H](NC(=O)c4ccccc4)c4ccccc4)C(C)=C1C3(C)C)[C@]1(OC(C)=O)CO[C@@H]1C[C@@H]2O [紫杉醇]
fold resistance (KBV200 cells (KBV200细胞) [4]): ~156 fold

COc1cc2c(c(OC)c1OC)-c1ccc(OC)c(=O)cc1[C@@H](NC(C)=O)CC2 [秋水仙素]
fold resistance (KBV200 cells (KBV200细胞) [4]): ~15 fold

COc1cc2c(cc1OC)[C@@H]1Cc3ccc(OC)c(OC)c3CN1CC2 [左旋四氢马汀]
reversal fold [1]: 8.2-13.0

CC[C@]1(O)C[C@H]2CN(CCc3c([nH]c4ccccc34)[C@@](C(=O)OC)(c3cc4c(cc3OC)N(C=O)[C@H]3[C@@](O)(C(=O)OC)[C@H](OC(C)=O)[C@]5(CC)C=CCN6CC[C@]43[C@@H]65)C2)C1 [VCR, 长春新碱]
inhibition rate (KBV200 cells (KBV200细胞) [2]): < 50% | inhibition at 0.125 µg/mL (KBV200 cells (KBV200细胞) [2]; Homo sapiens, KBv200, 72 h, VCR 0.125 μg/ml, 72 h, read-out: inhibition rate (IR)): 6.51 ± 2.59% | inhibition at 0.25 µg/mL (KBV200 cells (KBV200细胞) [2]; Homo sapiens, KBv200, 72 h, VCR 0.250 μg/ml, 72 h, read-out: inhibition rate (IR)): 9.06 ± 3.13% | inhibition at 0.5 µg/mL (KBV200 cells (KBV200细胞) [2]; Homo sapiens, KBv200, 72 h, VCR 0.500 μg/ml, 72 h, read-out: inhibition rate (IR)): 13.9 ± 3.54% | inhibition at 1 µg/mL (KBV200 cells (KBV200细胞) [2]; Homo sapiens, KBv200, 72 h, VCR 1.000 μg/ml, 72 h, read-out: inhibition rate (IR)): 25.6 ± 1.71% | inhibition at 2 µg/mL (KBV200 cells (KBV200细胞) [2]; Homo sapiens, KBv200, 72 h, VCR 2.000 μg/ml, 72 h, read-out: inhibition rate (IR)): 66.3 ± 0.01% | IC50 (KBV200 cells (KBV200细胞) [2]; Homo sapiens, VCR alone, 72 h): 1.58 ± 1.22 µg/mL | inhibition rate (IR) (KBV200 cells (KBV200细胞) [2]; VCR 0.500 μg/ml, 72 h): 13.96±3.54% | inhibition rate (IR) (KBV200 cells (KBV200细胞) [2]; VCR 1.000 μg/ml, 72 h): 25.65±1.71% | inhibition rate (IR) (KBV200 cells (KBV200细胞) [2]; VCR 2.000 μg/ml, 72 h): 66.31±0.01% | inhibitory effect on KBV200 cells (KBV200 cells (KBV200细胞) [2]; VCR above 1.58 μg/ml): 具有较为明显的抑制效应 | inhibitory effect on KBV200 cells (KBV200 cells (KBV200细胞) [2]; VCR below 1 μg/ml): 抑制效应并不明显 | fold resistance (KBV200 cells (KBV200细胞) [4]): ~175 fold
